Assay results reported in ChEMBL document CHEMBL5344443, “Manzamine-A Alters In Vitro Calvarial Osteoclast Function” (J Nat Prod, 2024).
Calls of active or inactive are those of the source. No cut-off for these calls is given here.

Legend:
Assay type in all cases: functional, cell-based
[1] = system: RAW264.7; experiment: Antiproliferative activity against mouse RAW 264.7 preosteoclast cells assessed as reduction in cell viability incubated for 72 hrs by MTS viability assay; settings: RAW264.7, 72 h
[2] = system: RAW264.7; experiment: Disruption of differentiated mouse RAW 264.7 osteoclast assessed as loss of osteoclast at 1.6 uM incubated for 48 hrs by TRAP staining
[3] = system: RAW264.7; experiment: Downregulation of Six1 mRNA expression in mouse differentiated RAW 264.7 osteoclasts cells at 47 uM incubated for 48 hrs by qRT-PCR analysis
[4] = system: RAW264.7; experiment: Antiproliferative activity against mouse RAW 264.7 preosteoclast cells assessed as reduction in cell viability incubated for 24 hrs by MTS viability assay; settings: RAW264.7, 24 h
[5] = system: RAW264.7; experiment: Induction of apoptosis in mouse differentiated RAW 264.7 osteoclast cells at 47 uM incubated for 72 hrs by Caspase 3/7 assay
[6] = system: RAW264.7; experiment: Disruption of differentiated mouse RAW 264.7 osteoclast assessed as reduction in cell density at 47 uM incubated for 48 hrs by TRAP staining
[7] = system: RAW264.7; experiment: Induction of apoptosis in mouse RAW 264.7 preosteoclast cells at 2.5 uM incubated for 24 hrs by Caspase 3/7 assay
[8] = system: RAW264.7; experiment: Disruption of differentiated mouse RAW 264.7 osteoclast assessed as loss of osteoclast at 1.6 uM incubated for 72 hrs by TRAP staining
[9] = system: RAW264.7; experiment: Antiproliferative activity against mouse differentiated RAW 264.7 osteoclast cells assessed as reduction in cell viability incubated for 24 hrs by MTS viability assay; settings: RAW264.7, 24 h
[10] = system: RAW264.7; experiment: Downregulation of Six1 mRNA expression in mouse differentiated RAW 264.7 osteoclasts cells at 120 uM incubated for 24 hrs by qRT-PCR analysis
[11] = system: RAW264.7; experiment: Downregulation of Six1 mRNA expression in mouse differentiated RAW 264.7 osteoclasts cells at 47 uM incubated for 24 hrs by qRT-PCR analysis
[12] = system: RAW264.7; experiment: Induction of apoptosis in mouse differentiated RAW 264.7 osteoclast cells at 120 uM incubated for 48 hrs by Caspase 3/7 assay
[13] = system: RAW264.7; experiment: Disruption of differentiated mouse RAW 264.7 osteoclast assessed as reduction in cell density at 1.6 uM incubated for 72 hrs by TRAP staining
[14] = system: RAW264.7; experiment: Downregulation of Six1 mRNA expression in mouse differentiated RAW 264.7 osteoclasts cells at 120 uM incubated for 48 hrs by qRT-PCR analysis
[15] = system: RAW264.7; experiment: Disruption of differentiated mouse RAW 264.7 osteoclast assessed as loss of osteoclast at 47 uM incubated for 24 hrs by TRAP staining
[16] = system: RAW264.7; experiment: Disruption of differentiated mouse RAW 264.7 osteoclast assessed as loss of osteoclast at 120 uM incubated for 72 hrs by TRAP staining
[17] = system: RAW264.7; experiment: Downregulation of Six1 mRNA expression in mouse RAW 264.7 preosteoclasts at 2.5 uM incubated for 24 hrs by qRT-PCR analysis
[18] = system: RAW264.7; experiment: Disruption of differentiated mouse RAW 264.7 osteoclast assessed as reduction in cell density at 47 uM incubated for 72 hrs by TRAP staining
[19] = system: RAW264.7; experiment: Disruption of differentiated mouse RAW 264.7 osteoclast assessed as loss of osteoclast at 1.6 uM incubated for 24 hrs by TRAP staining
[20] = system: RAW264.7; experiment: Disruption of differentiated mouse RAW 264.7 osteoclast assessed as reduction in cell density at 1.6 uM incubated for 48 hrs by TRAP staining
[21] = system: RAW264.7; experiment: Disruption of differentiated mouse RAW 264.7 osteoclast assessed as loss of osteoclast at 120 uM incubated for 48 hrs by TRAP staining
[22] = system: RAW264.7; experiment: Induction of apoptosis in mouse RAW 264.7 preosteoclast cells at 2.5 uM incubated for 72 hrs by Caspase 3/7 assay
[23] = system: RAW264.7; experiment: Disruption of differentiated mouse RAW 264.7 osteoclast assessed as loss of osteoclast at 120 uM incubated for 24 hrs by TRAP staining
[24] = system: RAW264.7; experiment: Induction of apoptosis in mouse differentiated RAW 264.7 osteoclast cells at 1.6 uM incubated for 48 hrs by Caspase 3/7 assay
[25] = system: RAW264.7; experiment: Induction of apoptosis in mouse differentiated RAW 264.7 osteoclast cells at 1.6 uM incubated for 72 hrs by Caspase 3/7 assay
[26] = system: RAW264.7; experiment: Induction of apoptosis in mouse differentiated RAW 264.7 osteoclast cells at 1.6 uM incubated for 24 hrs by Caspase 3/7 assay
[27] = system: RAW264.7; experiment: Induction of apoptosis in mouse differentiated RAW 264.7 osteoclast cells at 120 uM incubated for 72 hrs by Caspase 3/7 assay
[28] = system: RAW264.7; experiment: Disruption of differentiated mouse RAW 264.7 osteoclast assessed as loss of osteoclast at 47 uM incubated for 48 hrs by TRAP staining
[29] = system: RAW264.7; experiment: Disruption of differentiated mouse RAW 264.7 osteoclast assessed as reduction in cell density at 120 uM incubated for 24 hrs by TRAP staining
[30] = system: RAW264.7; experiment: Antiproliferative activity against mouse RAW 264.7 preosteoclast cells assessed as reduction in cell viability incubated for 48 hrs by MTS viability assay; settings: RAW264.7, 48 h
[31] = system: RAW264.7; experiment: Antiproliferative activity against mouse differentiated RAW 264.7 osteoclast cells assessed as reduction in cell viability incubated for 72 hrs by MTS viability assay; settings: RAW264.7, 72 h
[32] = system: RAW264.7; experiment: Disruption of differentiated mouse RAW 264.7 osteoclast assessed as reduction in cell density at 120 uM incubated for 48 hrs by TRAP staining
[33] = system: RAW264.7; experiment: Downregulation of Six1 mRNA expression in mouse RAW 264.7 preosteoclasts at 2.5 uM incubated for 48 hrs by qRT-PCR analysis
[34] = system: RAW264.7; experiment: Disruption of differentiated mouse RAW 264.7 osteoclast assessed as loss of osteoclast at 47 uM incubated for 72 hrs by TRAP staining
[35] = system: RAW264.7; experiment: Induction of apoptosis in mouse differentiated RAW 264.7 osteoclast cells at 47 uM incubated for 24 hrs by Caspase 3/7 assay
[36] = system: RAW264.7; experiment: Disruption of differentiated mouse RAW 264.7 osteoclast assessed as reduction in cell density at 120 uM incubated for 72 hrs by TRAP staining
[37] = system: RAW264.7; experiment: Disruption of differentiated mouse RAW 264.7 osteoclast assessed as reduction in cell density at 47 uM incubated for 24 hrs by TRAP staining
[38] = system: RAW264.7; experiment: Antiproliferative activity against mouse differentiated RAW 264.7 osteoclast cells assessed as reduction in cell viability incubated for 48 hrs by MTS viability assay; settings: RAW264.7, 48 h
[39] = system: RAW264.7; experiment: Induction of apoptosis in mouse differentiated RAW 264.7 osteoclast cells at 120 uM incubated for 24 hrs by Caspase 3/7 assay
[40] = system: RAW264.7; experiment: Disruption of differentiated mouse RAW 264.7 osteoclast assessed as reduction in cell density at 1.6 uM incubated for 24 hrs by TRAP staining

O[C@]12C=C(c3nccc4c3[nH]c3ccccc34)[C@@H]3CCN(CCCC/C=C\CC1)C[C@@]31C[C@@H]3/C=C\CCCCN3[C@H]12 [MANZAMINE A]
IC50 [1]: 1.9 µM | Activity [2]: Active | Activity [3]: Active | IC50 [4]: 2.5 µM | Activity [5]: inactive | Activity [6]: Active | Activity [7]: Active | Activity [8]: Active | IC50 [9]: 1.6 µM | Activity [10]: Active | Activity [11]: Active | Activity [12]: inactive | Activity [13]: Active | Activity [14]: Active | Activity [15]: Active | Activity [16]: Active | Activity [17]: Active | Activity [18]: Active | Activity [19]: inactive | Activity [20]: Active | Activity [21]: Active | Activity [22]: inactive | Activity [23]: Active | Activity [24]: Active | Activity [25]: inactive | Activity [26]: Active | Activity [27]: inactive | Activity [28]: Active | Activity [29]: Active | IC50 [30]: 2.2 µM | IC50 [31]: 47 µM | Activity [32]: Active | Activity [33]: Active | Activity [34]: Active | Activity [35]: Active | Activity [36]: Active | Activity [37]: Active | IC50 [38]: 120 µM | Activity [39]: Active | Activity [40]: inactive
